Laboratory results published in EP4671258A1, “RADIOACTIVE LABEL OF RISEDRONIC ACID DERIVATIVE, AND PRECURSOR COMPOUND THEREOF, AND PREPARATION METHOD THEREFOR AND USE THEREOF” (The Affiliated Hospital of Southwest Medical University, priority 2023, dated 2024).

Test system: tumor-bearing mice
Experiment: Comparative PET/CT imaging experiment in tumor-bearing mice (Test Example 2)
Format: in vivo, nude mice
Conditions: PET/CT whole-body imaging 2 hours after tail vein injection of about 0.1 ml (1 mCi/ml); MDA-MB-231 bone metastasis model
Description: In this test example, the PET/CT imaging experiment of the ^68Ga-labeled compound represented by Formula II-1 of the present disclosure in tumor-bearing mice was disclosed. • (1) Establishment of tumor-bearing mouse model: 12 SPF female nude mice were prepared. After isoflurane anesthesia, the skin around the left knee joint was disinfected. The left hind limb was bent and an insulin needle (29G needle) was used to insert vertically into the femur from the concave point of the femoral head joint fossa. The needle was slowly rotated into the bone marrow cavity and 25µl (containing about 2×10^6 cells) of MDA-MB-231 (human breast cancer cells, from ATCC) cell culture medium was injected. After disinfection, the hole was sealed with sterile bone wax, and the animal was placed on a 37°C hot plate to rewarm. After recovery, it was returned to the cage for continued feeding. • (2) Verification of tumor-bearing mouse model: 4 weeks after inoculation, 12 nude mice were scanned using Micro-CT respectively.
In this test example, a comparative PET/CT imaging experiment of the ^68Ga-labeled compound represented by Formula II-1 of the present disclosure and ^68Ga-DOTA-ibandronic acid in tumor-bearing mice was disclosed. The ^68Ga-DOTA-ibandronic acid was prepared according to the method No.5 in Table 1 in the description of the published Chinese patent application with application number 202111419244.X.
Four successfully modeled tumor-bearing mice were taken, in which two mice were injected with about 0.1 ml of the freshly prepared ^68Ga-labeled compound represented by Formula II-1 (with a concentration of 1 mCi/ml) via the tail vein, and the other two mice were injected with about 0.1 ml of the freshly prepared ^68Ga-DOTA-ibandronic acid (with a concentration of 1 mCi/ml) via the tail vein. PET/CT whole-body imaging was performed 2 hours after injection.
The T/N value was calculated according to the following formula: T/N value = SUVmax of lesion/SUVmax of background tissue [formula] Table 1: Imaging results of tumor-bearing mice

Head SUVmax: 0.783
Head SUVmin: 0.230
Lesion SUVmax: 0.647
Lesion SUVmin: 0.139
Liver SUVmax: 0.067
Liver SUVmin: 0.046
Substance: ^68Ga-DOTA-ibandronic acid
